# Legend:
# Adjuvant Edema = assay: Preventative Adjuvant Edema; type: in vivo, Male Sprague Dawley rats; conditions: rat; for ED50: po, days 0, 1 and 2; for Preventative Adjuvant Edema, percent inhibition: p.o.
# Protocol: This test is a primary screen for anti-inflammatory drugs.
# Male Sprague Dawley rats (180-200 g) are used. The animals have free access to water but food is withdrawn 18 hours before testing.
# Drug Preparations and Administration:
# Freund's complete adjuvant is prepared by suspending 5 mg of killed and dried Mycobacterium butyricum (Difco) in 1 mL mineral oil. The test compound are dissolved, or suspended in 0.5% Tween 80 in distilled water according to their solubility. For primary screening all drugs are administered by gastric lavage at the arbitrary dosage of 25 mg/kg, p.o. in a volume of 0.5 mL/100 g body weight to groups of 10 animals.
# The method is essentially that described by Wax et al, J. Pharmacol. Exp. Ther., 192, 166-171 (1975). Groups of rats are injected intradermally in the left hind paw with 0.1 mL of Freund's complete adjuvant. The test compound or vehicle is administered immediately before the adjuvant, 24 hours and 48 hours after the adjuvant (days 0, 1 and 2). The injected hind paw volume is measured before the injection of adjuvant and 24 hrs. after the last drug administration (day 3) by means of a plethysmometer (Buxco Electronics Inc.). The difference between the hind paw volume on day 0 and day 3 represents the edema volume. Etodolac (25 mg/kg, p.o.) is included as a positive control.
# The mean edema volume (expressed as mL±SEM) is calculated for each group and the percentage protection conferred by the drug is calculated: [formula] where c is the mean edema volume for the vehicle-treated (0.5% Tween 80 in distilled water) controls and t is the mean edema volume for the drug treated group.
# [1] = tested on: Phenylbenzoquinone-induced Writhing; assay: Drug Effects on Phenylbenzoquinone-induced Writhing in Mice; type: in vivo, Male Swiss albino mice; conditions: mouse, p.o., 60 min before PBQ i.p.; for Phenylquinone Writhing in Mice, percent inhibition: dose 10 mg/kg; for ED50: po, read-out: Phenylquinone Writhing in Mice ED50
# Protocol: A further test used to determine the utility of the compounds of the present invention is designated: Drug Effects on Phenylbenzoquinone-induced Writhing in Mice
# The objective of this test is to determine the ability of test drugs to inhibit the nociceptive (pain) response of mice injected with a chemical irritant. This test is a primary screen for both peripheral and centrally acting analgesic drugs.
# Male Swiss albino mice (15-25 g). The animals are fasted for 18 hours prior to use but have free access to water.
# Drug Preparation and Administration:
# Drugs are dissolved or suspended according to their solubility in 0.5% Tween 80 in distilled water. They are administered by gastric gavage in a volume of 5 mL/kg. For primary screening all drugs are administered at the arbitrary dosage of 25 mg/kg, p.o. to a group of 10 mice.
# A modification of the method of Siegmund et al, Proc. Soc. Exp. Biol. Med., 95, 729-731 (1957) is used. Groups of 5 mice are dosed with the test compound or vehicle control. Sixty minutes later the animals are injected i.p. with 0.3 mL/20 g body weight of a 0.02% solution of phenylbenzoquinone (PBQ; 2-phenyl-1,4-benzoquinone) and placed in individual observation boxes. The number of writhing or abdominal squirming movements made by each mouse during the following 15 min. period is counted. The experiment is repeated with another group of 5 mice and the mean number of writhes per mouse for a group of 10 mice is calculated.
# Drug treated and vehicle-treated control groups are compared and the percentage protection conferred by the drug is calculated: [formula] where c=mean number of writhes in the control group
# t=mean number of writhes in the test drug group
SMILES,"Phenylquinone Writhing in Mice, percent inhibition [1] [%]","Preventative Adjuvant Edema, percent inhibition (Adjuvant Edema; dose 25 mg/kg) [%]",further results
"CCC1(CC(=O)O)OCCc2c1[nH]c1c(OCC(F)(F)F)ccc(C)c21 (stereo not drawn) [Example 1, 1-Ethyl-1,3,4,9-tetrahydro-5-methyl-8-(2,2,2-trifluoroethoxy)pyrano[3,4-b]indole-1-acetic Acid]",34,,ED50 (Adjuvant Edema): 16.4 mg/kg
"CCC1(CC(=O)O)OCCc2c1[nH]c1c(OCC(F)(F)F)c(Cl)ccc21 (stereo not drawn) [Example 2, 7-Chloro-1-ethyl-1,3,4,9-tetrahydro-8-(2,2,2-trifluoroethoxy)pyrano[3,4-b]indole-1-acetic Acid]",,,"Preventative Adjuvant Edema, percent inhibition (Adjuvant Edema; dose 3 mg/kg): 50%; ED50 [1]: 77 mg/kg"
"CCC1(CC(=O)O)OCCc2c1[nH]c1c(OCC(F)(F)F)ccc(F)c21 (stereo not drawn) [Example 3, 1-ethyl-5-fluoro-1,3,4,9-tetrahydro-8-(2,2,2-trifluoroethoxy)-pyrano[3,4-b]indole-1-acetic acid]",18,70,
"CCC1(CC(=O)O)OCCc2c1[nH]c1c(OCC(F)(F)F)c(F)ccc21 (stereo not drawn) [Example 4, 7-fluoro-1-ethyl-1,3,4,9-tetrahydro-8-(2,2,2-trifluoroethoxy)-pyrano[3,4-b]indole-1-acetic acid]",0,,"Preventative Adjuvant Edema, percent inhibition (Adjuvant Edema; dose 10 mg/kg): 83%"
"CCC1(CC(=O)O)OCCc2c1[nH]c1c(OC(C)C(F)(F)F)c(Cl)ccc21 (stereo not drawn) [Example 5, 7-chloro-1-ethyl-1,3,4,9-tetrahydro-8-(1-methyl-2,2,2-trifluoroethoxy)-pyrano[3,4-b]indole-1-acetic acid]",31,41,
"CCC1(CC(=O)O)OCCc2c1[nH]c1c(OCC(F)(F)F)cccc21 (stereo not drawn) [Example 6, 1-Ethyl-1,3,4,9-tetrahydro-8-(2,2,2-trifluoroethoxy)pyrano[3,4-b]indole-1-acetic Acid]",,,ED50 (Adjuvant Edema): 4.3 mg/kg; ED50 [1]: > 200 mg/kg
"C=CCOc1cccc2c3c([nH]c12)C(CC)(CC(=O)O)OCC3 (stereo not drawn) [Example 7, 1-ethyl-1,3,4,9-tetrahydro-8-[(2-propenyl)oxy]-pyrano[3,4-b]indole-1-aceticacid]",18,41,
"C#CCOc1cccc2c3c([nH]c12)C(CC)(CC(=O)O)OCC3 (stereo not drawn) [Example 8, 1-Ethyl-1,3,4,9-tetrahydro-8-[(2-propynyl)oxy]-pyrano[3,4-b]indole-1-aceticAcid]",,34,

# Source: patent US4810699A, “Substituted 1,3,4,9-tetrahydropyrano[3,4,-b]indole-1-acetic acids, pharmaceutical compositions containing them, and methods for treating inflammatory conditions and for analgesic purposes using them” (American Home Products Corporation, priority 1987, dated 1989)
